Assay results: PMC7346113, “Screening of Natural Stilbene Oligomers from Vitis vinifera for Anticancer Activity on Human Hepatocellular Carcinoma Cells” (Antioxidants, 2020)

Legend:
Format in all cases: cell-based, human
Conditions in all cases: mean ± standard error
Hep3B = assay: Cell viability, crystal violet assay, Hep3B
Description: (§1) The human hepatoma cell line HepG2 was obtained from the American Tissue Culture Collection (ATCC, Manassas, VA, USA). The human hepatoma cell line Hep3B was obtained from the European Collection of Authenticated Cell Cultures (ECACC, Porton Down, Salisbury, Wiltshire, UK). HH4 non-transformed human hepatocyte cell line (kindly provided by Dr. I. Fabregat, Molecular Oncology, Bellvitge Biomedical Research Institute, Spain) was established as described.
(§2) HepG2 and Hep3B cell lines were maintained in Eagle’s Minimum Essential Medium and HH4 cell line was grown in Ham´s F12 Nutrient Mixture (Sigma-Aldrich, St Louis, MO, USA). Both culture media were supplemented with 10% heat inactivated fetal bovine serum, 2 mM L-glutamine and antibiotics (0.1 mg/mL streptomycin and 100 U/mL penicillin) (Sigma-Aldrich, St Louis, MO, USA). Cell cultures were grown in an incubator at 37 °C with 5% CO2 atmosphere. After reaching approximately 80% of confluence, cells were detached in a solution of 0.1% trypsin and 0.04% EDTA and plated as required for further experiments.
(§3) Cell lines were seeded into 96-well plates at 5 × 10^3 (HepG2) and 3 × 10^3 (Hep3B and HH4) cells/well 24 h before treatment. Increasing concentrations of the monomer trans-resveratrol, the dimers ampelopsin A and trans-ε-viniferin and the tetramers isohopeaphenol, hopeaphenol, R2-viniferin and R-viniferin were then added and cells were incubated for 24, 48, and 72 h. Stilbenes were dissolved in dimethyl sulfoxide (DMSO), Sigma-Aldrich, St Louis, MO, USA) at a final concentration of 0.01%. The same amount of DMSO was added to control cells. After treatment, the cell viability was determined using the crystal violet assay. The absorbance was recorded at 590 nm in a Synergy HT microplate reader (BioTek, Winooski, VT, USA). Cell viability was calculated as the percentage of viable cells treated with stilbene versus untreated control cells using the following equation: Cell viability (%) = [OD (Treatment) − OD (Blank)]/[OD (Control) − OD (Blank)] × 100. The cytotoxic effect of stilbenes was determined by calculating IC50 values using non-linear regression analysis (GraphPad Prism 6, San Diego, CA, USA).
(§4) The statistical package SPSS 19.0 (SPSS Inc. Chicago, IL, USA) was used for data analysis. The results were expressed as mean ± standard error (SE) from at least three experiments. Statistical significance for the differences of the means was estimated by parametric Student’s t-test. Differences between means were considered statistically significant for p < 0.05. IC50 values were derived from fitting the data to a sigmoidal dose-response curve with a three-parameter logistic model using Graph Pad Prism 6.

HepG2 = assay: Cell viability, crystal violet assay, HepG2
Description: as §1, §2, §3, §4

HH4 = assay: Cell viability, crystal violet assay, HH4 non-transformed hepatocytes
Description: as §1, §2, §3, §4

[1] = Homo sapiens, HepG2, 24 h, 24 h
[2] = Homo sapiens, HepG2, 48 h, 48 h
[3] = Homo sapiens, HepG2, 72 h, 72 h

SMILES | IC50 (Hep3B; Homo sapiens, Hep3B, 24 h) [µM] | IC50 (Hep3B; Homo sapiens, Hep3B, 48 h) [µM] | IC50 (Hep3B; Homo sapiens, Hep3B, 72 h) [µM] | IC50 (HepG2; 72 h) [µM] | IC50 (HepG2; [1]) [µM] | IC50 (HepG2; [2]) [µM] | IC50 (HepG2; [3]) [µM] | IC50 (Hep3B; 72 h) [µM] | IC50 (HH4; Homo sapiens, Hepatocyte, 24 h) [µM] | IC50 (HH4; Homo sapiens, Hepatocyte, 48 h) [µM] | IC50 (HH4; Homo sapiens, Hepatocyte, 72 h) [µM] | IC50 (HH4; 72 h) [µM]
Oc1ccc([C@@H]2c3c(O)cc(O)cc3[C@H]3c4c(cc(O)cc4[C@@H]2[C@H]2c4cc(O)cc5c4[C@H](c4cc(O)cc(O)c4[C@H]2c2ccc(O)cc2)[C@@H](c2ccc(O)cc2)O5)O[C@@H]3c2ccc(O)cc2)cc1 [Isohopeaphenol] | 86.6 ± 11.7 | 37 ± 4.5 | 26 ± 3 | 54.1 ± 34 | 113 ± 33 | 68.8 ± 31 | 54 |  | > 200 | 96 ± 5.5 | 63.7 ± 3.7 | 
Oc1ccc([C@H]2Oc3cc(O)cc(/C=C/c4ccc5c(c4)[C@@H](c4cc(O)cc6c4[C@H](c4cc(O)cc(O)c4)[C@@H](c4ccc(O)cc4)O6)[C@H](c4ccc(O)cc4)O5)c3[C@@H]2c2cc(O)cc(O)c2)cc1 [R-Viniferin] | > 200 | 137 ± 19.8 | 135 ± 35.7 |  | > 200 | > 200 | 192 ± 27.1 |  |  |  |  | 
Oc1ccc([C@H]2c3c(O)cc(O)cc3[C@H]3c4c(cc(O)cc4[C@@H]2[C@H]2c4cc(O)cc5c4[C@H](c4cc(O)cc(O)c4[C@@H]2c2ccc(O)cc2)[C@@H](c2ccc(O)cc2)O5)O[C@@H]3c2ccc(O)cc2)cc1 [Hopeaphenol] | > 200 | 16.8 ± 2.3 | 13 | 24.4 ± 2 | > 200 | 27 ± 3.3 | 24 | 13.1 ± 4.1 | > 200 | 92 ± 38 | 37.6 ± 13 | 
Oc1ccc([C@H]2c3c(O)cc(O)cc3[C@H]3c4c(cc(O)cc4[C@@H]2O)O[C@@H]3c2ccc(O)cc2)cc1 [Ampelopsin A] | > 200 | 148 ± 14.4 | 109 ± 7.3 | 75.5 ± 21.5 | > 200 | 98.6 ± 24.9 | 76 |  | > 200 | 178 ± 67.8 | 134 ± 34.7 | 

Second part, led by results:

IC50 (Hep3B; Homo sapiens, Hep3B, 24 h) [µM] | IC50 (Hep3B; Homo sapiens, Hep3B, 48 h) [µM] | IC50 (Hep3B; Homo sapiens, Hep3B, 72 h) [µM] | IC50 (HepG2; 72 h) [µM] | IC50 (HepG2; [1]) [µM] | IC50 (HepG2; [2]) [µM] | IC50 (HepG2; [3]) [µM] | IC50 (Hep3B; 72 h) [µM] | SMILES | IC50 (HH4; Homo sapiens, Hepatocyte, 24 h) [µM] | IC50 (HH4; Homo sapiens, Hepatocyte, 48 h) [µM] | IC50 (HH4; Homo sapiens, Hepatocyte, 72 h) [µM] | IC50 (HH4; 72 h) [µM]
108 ± 31.8 | 73.9 ± 17.3 | 63 |  | 140 ± 39.7 | 104 ± 19.2 | 94.8 ± 28.3 | 63.1 ± 10.8 | Oc1ccc(/C=C/c2cc(O)cc3c2[C@@H](c2cc(O)cc(O)c2)[C@H](c2ccc(O)cc2)O3)cc1 [trans-ε-Viniferin] | > 200 | 193 ± 21.1 | 178 | 178 ± 20.5
> 200 | 42 ± 11.6 | 21 ± 16.8 | 30.3 ± 4.4 | > 200 | 40.3 ± 9.3 | 30 |  | Oc1ccc(/C=C/c2cc(O)cc(O)c2)cc1 [trans-Resveratrol, reference compound] | > 200 | 135 ± 9 | 93 ± 16.1 | 
